Tested on: HIV LTR
Test: Chromatin immunoprecipitation (ChIP) at the HIV LTR in J-Lat cells
Format: cell-based, HIV-1
Experimental: J-Lat A2 and A72 cells were treated with TNFα (10 ng/ml) for 18 h. Cells were fixed with 1% formaldehyde (v/v) in fixation buffer (1 mM EDTA, 0.5 mM EGTA, 50 mM Hepes, pH 8.0, 100 mM NaCl), and fixation was stopped after 10 min by addition of glycine to 125 mM. The cell membrane was lysed for 15 min on ice (5 mM Pipes, pH 8.0, 85 mM KCl, 0.5% NP40, protease inhibitors). After washing with nuclear swell buffer (25 mM HEPES, pH 7.5, 4 mM KCl, 1 Mm DTT, 0.5% NP-40, 0.5 mM PMSF) and micrococcal nuclease (MNase) digestion buffer (20 mM Tris pH 7.5, 2.5 mM CaCl2), 5 mM NaCl, 1 mM DTT, 0.5% NP-40), the pellet was resuspended in MNase buffer (15 mM Tris-HCl, pH 7.5, 5 mM MgCl2, 1 mM CaCl2), and 25 mM NaCl). Subsequently, samples were incubated with MNase (New England Biolabs) for 10 min at RT. The reaction was quenched with 0.5 M EDTA and incubated on ice for 5 min. Cells were lysed (1% SDS, 10 mM EDTA, 50 mM Tris-HCl, pH 8.1, protease inhibitors), and chromatin DNA was sheared to 200-1000-bp average size through sonication (Ultrasonic Processor CP-130, Cole Parmer). Cellular debris was pelleted, and the supernatant was recovered. Protein A/G Sepharose beads were blocked with single-stranded salmon sperm DNA and BSA, washed and resuspended in immunoprecipitation buffer. Blocked protein A/G Sepharose beads were added to the digested chromatin fractions and rotated at 4° C. for 2 h to preclear chromatin. Lysates were incubated overnight at 4° C. with 5 μg of FOXO1, RelA, histone H4, H4K20me1, H4K20me2, H4K20me3 antibodies, or IgG control. After incubation with protein A/G agarose beads for 2 h and washing three times with low salt buffer (0.1% SDS, 1% Triton X-100, 2 mM EDTA, 20 mM Tris-HCl, pH 8.1, 150 mM NaCl), one time with high salt buffer (0.1% SDS, 1% Triton X-100, 2 mM EDTA, 20 mM Tris-HCl, pH 8.1, 500 mM NaCl) and twice with TE-buffer (1 mM EDTA, 10 mM Tris-HCl, pH 8.1), chromatin was eluted and recovered with Agencourt AMPure XP beads (Beckman Coulter). Bound chromatin and input DNA were treated with RNase H (New England Biolabs) and Proteinase K (Sigma-Aldrich) at 37° C. for 30 min. Immunoprecipitated chromatin was quantified by real-time PCR using the Maxima SYBR Green qPCR Master Mix (Thermo Scientific) and the ABI 7700 Sequence Detection System (Applied Biosystems). The SDS 2.4 software (Applied Biosystems) was used for analysis. The specificity of each PCR reaction was confirmed by melting curve analysis using the Dissociation Curve software (Applied Biosystems). All chromatin immunoprecipitations and qPCRs were repeated at least three times, and representative results were shown.
Because ATF4 can be recruited to the HIV LTR (Jiang, G. et al. Downloaded from. MBio 8, 1518-1534 (2018)) and the related human T-cell leukemia virus type 1 (HTLV-1) Reddy, T. et al. Oncogene 14, 2785-2792 (1997)), chromatin immunoprecipitation (ChIP) experiments were performed to test whether ATF4 binds the HIV LTR in response to FOXO1 inhibition. While low levels of ATF4 bound HIV LTR chromatin in untreated J-Lat cells, its recruitment was 3-fold enriched after AS1842856 treatment (FIG. 9, Panel A). […] The nuclear factor of activated T cells (NFAT) can occupy the NF-κB binding sites in the HIV LTR, and is activated through calcium mobilization after T cell activation rather than protein kinase C activation as for NF-κB. […]

For `CCn1cc(C(=O)O)c(=O)c2c(N)c(F)c(NC3CCCCC3)cc21` [AS1842856, 5-amino-7-(cyclohexylamino)-1-ethyl-6-fluoro-4-oxo-1,4-dihydro-quinoline-3-carboxylic acid], the “NFAT at the HIV LTR” value was “markedly enriched”, the “RNA polymerase II recruitment to the HIV promoter” value was “marked increase” and the “RelA recruitment to the HIV LTR” value was “not recruited”. For the same molecule, the “ATF4 recruitment to HIV LTR chromatin” value (1000 nM vs untreated) was 3 fold.

Source: patent US20220193209A1, “COMPOSITIONS AND METHODS FOR REACTIVATING LATENT IMMUNODEFICIENCY VIRUS AND/OR TREATING IMMUNODEFICIENCY VIRUS INFECTION” (The J. David Gladstone institutes, a testamentary trust …, priority 2019, published 2022)
